In the supplement of paper PMC10627819:

Experiments:
[1] = tested on: S. aureus DSM 20231; assay: Bliss interaction score (quartile over a dose matrix) (fitness difference); higher = more antagonism (negative = synergy)
Procedure, shortened: (§1)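 The Bliss score was calculated by subtracting the expected fitness, the product of single-drug values, from the observed fitness. OD595 at entry into stationary phase, over the plate's robust no-drug mean and capped at 1, served as the fitness readout. Single-drug values were inferred from combination data, and scores are summarised by quartiles across technical, biological and donor/recipient replicates.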

[2] = tested on: S. aureus Newman; assay: as above
Procedure, shortened: as §1

[3] = tested on: B. subtilis 168; assay: as above
Procedure, shortened: as §1

[4] = tested on: S. pneumoniae D39V; assay: as above
Procedure, shortened: as §1

[5] = tested on: S. aureus DSM 20231; assay: fitness (endpoint OD595 vs no drug) (fraction); higher = more growth
Procedure, shortened: (§2)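 Bacterial fitness was scored as optical density at the stationary-phase transition relative to the robust mean of no-drug control wells. Scores are capped at 1. The growth data were OD595 readings every 30 min for 14 h at 37 °C, background-subtracted against the first reading, from 384-well plates inoculated at OD595 0.01 in TSB, LB Lennox or CY.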

[6] = tested on: S. aureus Newman; assay: as above
Procedure, shortened: as §2

[7] = tested on: B. subtilis 168; assay: as above
Procedure, shortened: as §2

[8] = tested on: S. pneumoniae D39V; assay: as above
Procedure, shortened: as §2
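Wherever Bliss interaction score (quartile over a dose matrix) is given: first quartile when negative (synergy) and third quartile when positive (antagonism).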

C[C@@H]1O[C@@H]1P(=O)(O)O [Fosfomycin] + CC1=C\[C@@H](O)CC(=O)Cc2nc(co2)C(=O)N2CCC=C2C(=O)O[C@H](C(C)C)[C@H](C)/C=C/C(=O)NC\C=C\1 [Virginiamycin M1]
Details | Bliss interaction score
[1] | -0.0507
[2] | -0.0636
[3] | 0.0317
[4] | -0.0376

fitness
Details | partner 0.0625 µg/mL | partner 0.125 µg/mL | partner 0.25 µg/mL | partner 0.5 µg/mL | partner 1 µg/mL | partner 2 µg/mL
[5], first compound 0.781 µg/mL | 0.755 | 0.783 | 0.783 | – | – | –
[5], first compound 1.562 µg/mL | 0.533 | 0.581 | 0.605 | – | – | –
[5], first compound 3.124 µg/mL | 0.487 | 0.49 | 0.506 | – | – | –
[6], first compound 0.781 µg/mL | 0.538 | 0.567 | 0.555 | – | – | –
[6], first compound 1.562 µg/mL | 0.503 | 0.511 | 0.528 | – | – | –
[6], first compound 3.124 µg/mL | 0.173 | 0.168 | 0.149 | – | – | –
[7], first compound 1.562 µg/mL | 0.728 | 0.688 | 0.727 | – | – | –
[7], first compound 3.124 µg/mL | 0.603 | 0.565 | 0.576 | – | – | –
[7], first compound 6.248 µg/mL | 0.488 | 0.43 | 0.427 | – | – | –
[8], first compound 1.25 µg/mL | – | – | – | 0.958 | 0.944 | 0.928
[8], first compound 2.5 µg/mL | – | – | – | 0.987 | 0.956 | 0.905
[8], first compound 5 µg/mL | – | – | – | 0.852 | 0.831 | 0.854

fitness, one replicate
Details | first compound 0.781 µg/mL | first compound 1.25 µg/mL | first compound 1.562 µg/mL | first compound 2.5 µg/mL | first compound 3.124 µg/mL | first compound 5 µg/mL
[5], partner 0.5 µg/mL | 0.847 | – | 0.614 | – | 0.412 | –
[5], partner 1 µg/mL | 0.771 | – | 0.643 | – | 0.386 | –
[6], partner 0.5 µg/mL | 0.626 | – | 0.557 | – | 0.299 | –
[6], partner 1 µg/mL | 0.614 | – | 0.478 | – | 0.182 | –
[6], partner 2 µg/mL | 0.463 | – | 0.297 | – | 0.0494 | –
[8], partner 0.15 µg/mL | – | 0.968 | – | 0.926 | – | 0.892
[8], partner 0.3 µg/mL | – | 0.89 | – | 0.908 | – | 0.897

Cc1ncc([N+](=O)[O-])n1CCO [Metronidazole] + Cc1onc(-c2ccccc2)c1C(=O)N[C@@H]1C(=O)N2[C@@H]1SC(C)(C)[C@@H]2C(=O)O [Oxacillin]
Details | Bliss interaction score
[1] | 0.0451
[2] | 0.0703
[3] | 0.0534
[4] | 0.144

fitness
Details | first compound 0.625 µg/mL | first compound 1.073 µg/mL | first compound 1.25 µg/mL | first compound 2.145 µg/mL | first compound 2.5 µg/mL | first compound 4.29 µg/mL | first compound 5 µg/mL
[5], partner 0.0156 µg/mL | 0.937 | – | ≥ 1 | – | 0.991 | – | –
[5], partner 0.0312 µg/mL | – | – | 0.816 | – | 0.828 | – | –
[5], partner 0.0625 µg/mL | 0.632 | – | 0.645 | – | – | – | –
[6], partner 0.0156 µg/mL | 0.772 | – | 0.785 | – | 0.768 | – | –
[6], partner 0.0312 µg/mL | 0.737 | – | 0.786 | – | 0.702 | – | –
[6], partner 0.0625 µg/mL | 0.658 | – | 0.551 | – | 0.601 | – | –
[7], partner 0.002 µg/mL | 0.972 | – | 0.962 | – | 0.942 | – | –
[7], partner 0.004 µg/mL | 0.957 | – | ≥ 1 | – | 0.942 | – | –
[7], partner 0.008 µg/mL | 0.946 | – | 0.869 | – | 0.858 | – | –
[8], partner 0.01 µg/mL | – | 0.971 | 0.985 | 0.891 | 0.981 | 0.965 | 0.97
[8], partner 0.02 µg/mL | – | 0.964 | 0.959 | 0.967 | 0.995 | – | 0.948
[8], partner 0.04 µg/mL | – | 0.845 | 0.625 | 0.888 | 0.648 | 0.839 | 0.566

fitness, one replicate
Details | first compound 0.625 µg/mL | first compound 0.781 µg/mL | first compound 1.25 µg/mL | first compound 1.562 µg/mL | first compound 2.5 µg/mL | first compound 3.124 µg/mL
[6], partner 0.0156 µg/mL | – | 0.826 | – | 0.749 | – | 0.817
[6], partner 0.0312 µg/mL | – | 0.737 | – | 0.737 | – | 0.721
[6], partner 0.0625 µg/mL | – | 0.655 | – | 0.643 | – | 0.705
[7], partner 0.075 µg/mL | 0.548 | – | 0.664 | – | 0.507 | –
[7], partner 0.15 µg/mL | 0.0434 | – | 0.0679 | – | 0.0716 | –
[7], partner 0.3 µg/mL | 0.0488 | – | 0.0601 | – | 0.0718 | –

CO/N=C(\C(=O)N[C@@H]1C(=O)N2C(C(=O)O)=C(COC(C)=O)CS[C@H]12)c1csc(N)n1 [Cefotaxime] + Cc1cc(NS(=O)(=O)c2ccc(N)cc2)no1 [Sulfamethoxazol]
Details | Bliss interaction score
[1] | 0.046
[2] | 0.0672
[3] | 0.054
[4] | 0.0301

fitness, one replicate
Details | partner 0.5 µg/mL | partner 1 µg/mL | partner 2 µg/mL | partner 4 µg/mL | partner 8 µg/mL
[5], first compound 0.039 µg/mL | – | 0.724 | 0.758 | 0.714 | –
[6], first compound 0.039 µg/mL | – | 0.86 | – | – | 0.922
[6], first compound 0.078 µg/mL | – | – | – | – | 0.877
[6], first compound 0.156 µg/mL | – | – | – | – | 0.823
[6], first compound 0.312 µg/mL | – | – | – | – | 0.588
[6], first compound 0.625 µg/mL | – | 0.0508 | 0.0123 | 0.0053 | –
[6], first compound 1.25 µg/mL | – | 0.0193 | 0.0269 | 0.0043 | –
[6], first compound 2.5 µg/mL | – | 0.0252 | 0.0046 | 0.0076 | –
[7], first compound 0.00775 µg/mL | – | 0.802 | 0.77 | 0.757 | –
[7], first compound 0.0155 µg/mL | – | 0.719 | 0.638 | 0.6 | –
[7], first compound 0.031 µg/mL | – | 0.552 | 0.513 | 0.475 | –
[7], first compound 0.0625 µg/mL | 0.664 | 0.494 | 0.438 | – | –
[7], first compound 0.125 µg/mL | 0.395 | 0.402 | 0.275 | – | –
[7], first compound 0.25 µg/mL | 0.325 | 0.0239 | 0.201 | – | –

fitness
Details | partner 1 µg/mL | partner 2 µg/mL | partner 4 µg/mL
[5], first compound 0.078 µg/mL | 0.737 | 0.735 | 0.74
[5], first compound 0.156 µg/mL | 0.681 | 0.686 | 0.687
[5], first compound 0.312 µg/mL | 0.619 | 0.605 | 0.631
[6], first compound 0.039 µg/mL | – | 0.944 | 0.886
[6], first compound 0.078 µg/mL | 0.776 | 0.821 | 0.833
[6], first compound 0.156 µg/mL | 0.687 | 0.752 | 0.748
[6], first compound 0.312 µg/mL | 0.408 | 0.535 | 0.547
[7], first compound 0.5 µg/mL | 0.221 | 0.187 | 0.211
[7], first compound 1 µg/mL | 0.115 | 0.0739 | 0.0877
[7], first compound 2 µg/mL | 0.11 | 0.0944 | 0.0802
[8], first compound 0.0018 µg/mL | 0.945 | 0.969 | 0.913
[8], first compound 0.0035 µg/mL | 0.984 | 0.955 | 0.943
[8], first compound 0.007 µg/mL | 0.894 | 0.91 | 0.888
